16 molecules from PubChem BioAssay AID330 (DTP/NCI, 2004) can be followed below.

For the assay, the system named is P388 leukemia ip, CD2F1 mice, survival T/C. As to the kind of experiment: NCI In Vivo Anticancer Drug Screen. Data for tumor model P388 Leukemia (intraperitoneal) in CD2F1 (CDF1) mice. As to conditions: endpoint: median survival time, higher = longer survival. In outline: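 Mice carrying the transplanted tumor received test compound or vehicle. Survival was recorded in each group, and the value is the treated-group measurement divided by that of the vehicle-treated control group.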

[1] abbreviates: dose: 200.0 mg/kg/injection, schedule: Q04DX003 (ip), vehicle: saline.
Where [2] appears, read: dose: 400.0 mg/kg/injection, schedule: Q04DX003 (ip), vehicle: saline.
Where [3] appears, read: dose: 60.0 mg/kg/injection, schedule: Q01DX005 (ip), vehicle: saline.
Setting [4] is: dose: 120.0 mg/kg/injection, schedule: Q01DX005 (ip), vehicle: saline.

Several values for one entry are separate records, joined by “and”; a condition that tells them apart may be missing. Equal values may be shown once. Toxic doses and inconclusive results are not listed.

As to `O=[N+]([O-])c1ccc2c(c1)[S@@](=O)c1nc([N+](=O)[O-])cnc1N2`, the T/C runs as follows: (dose: 50.0 mg/kg/injection, schedule: Q01DX005 (ip), vehicle: Klucel (hydroxypropylcellulose) (HPC)) 103 % of control; (dose: 100.0 mg/kg/injection, schedule: Q01DX005 (ip), vehicle: Klucel (hydroxypropylcellulose) (HPC)) 101 % of control.

Regarding `CC(=O)O[C@H]1C(=O)[C@]2(C)[C@@H](OC(C)=O)CC3OC[C@@]3(OC(C)=O)[C@H]2[C@H](OC(=O)c2ccccc2)[C@]2(O)C[C@H](OC(=O)[C@H](OC(C)=O)[C@@H](NC(=O)c3ccccc3)c3ccccc3)C(C)=C1C2(C)C` (some centres not stated), the T/C was 100 % of control (dose: 2.5 mg/kg/injection, schedule: Q01DX005 (ip), vehicle: DMSO); 102 % of control and 118 % of control (dose: 5.0 mg/kg/injection, schedule: Q01DX005 (ip), vehicle: DMSO); 102 % of control and 124 % of control (dose: 10.0 mg/kg/injection, schedule: Q01DX005 (ip), vehicle: DMSO); 107 % of control (dose: 12.5 mg/kg/injection, schedule: Q01DX005 (ip), vehicle: DMSO); 121 % of control (dose: 20.0 mg/kg/injection, schedule: Q01DX005 (ip), vehicle: DMSO); 120 % of control (dose: 25.0 mg/kg/injection, schedule: Q01DX005 (ip), vehicle: DMSO). Further, the T/C runs as follows: (dose: 40.0 mg/kg/injection, schedule: Q01DX005 (ip), vehicle: DMSO) 178 % of control; (dose: 50.0 mg/kg/injection, schedule: Q01DX005 (ip), vehicle: DMSO) 124 % of control; (dose: 100.0 mg/kg/injection, schedule: Q01DX005 (ip), vehicle: DMSO) 120 % of control.

As for `O=C(O)c1ccccc1Nc1ccccc1[N+](=O)[O-]`, the T/C runs as follows: (dose: 50.0 mg/kg/injection, schedule: Q04DX003 (ip), vehicle: saline) 94 % of control; (dose: 100.0 mg/kg/injection, schedule: Q04DX003 (ip), vehicle: saline) 99 % of control; under setting [1], 102 % of control; under setting [2], 105 % of control.

On to `Brc1cnn(Cn2cc(Br)cn2)c1`, for which the T/C by setting is: (dose: 60.0 mg/kg/injection, schedule: Q01DX005 (ip), vehicle: Klucel (hydroxypropylcellulose) (HPC)) 102 % of control; (dose: 120.0 mg/kg/injection, schedule: Q01DX005 (ip), vehicle: Klucel (hydroxypropylcellulose) (HPC)) 102 % of control; (dose: 240.0 mg/kg/injection, schedule: Q01DX005 (ip), vehicle: Klucel (hydroxypropylcellulose) (HPC)) 99 % of control.

In the case of `CC[C@H]1CN2CCc3cc(OC)c(OC)cc3[C@@H]2C[C@@H]1C[C@H]1NCCc2cc(OC)c(OC)cc21`, the T/C (dose: 1.0 mg/kg/injection, schedule: Q01DX009 (ip), vehicle: water) was 112 % of control and 118 % of control; the T/C (dose: 4.0 mg/kg/injection, schedule: Q01DX009 (ip), vehicle: water) is 154 % of control; the T/C (dose: 4.32 mg/kg/injection, schedule: Q04DX003 (ip), vehicle: saline) is 118 % of control and 122 % of control; the T/C (dose: 5.0 mg/kg/injection, schedule: Q04DX003 (ip), vehicle: saline) is 121 % of control; the T/C (dose: 5.18 mg/kg/injection, schedule: Q04DX002 (ip), vehicle: saline) was 106 % of control; the T/C (dose: 5.18 mg/kg/injection, schedule: Q04DX003 (ip), vehicle: saline) is 122 % of control. Besides, the T/C reads like this: (dose: 7.2 mg/kg/injection, schedule: Q04DX003 (ip), vehicle: saline) 123 % of control; (dose: 8.0 mg/kg/injection, schedule: Q01DX009 (ip), vehicle: water) 166 % of control and 183 % of control; (dose: 8.64 mg/kg/injection, schedule: Q04DX003 (ip), vehicle: saline) 122 % of control; (dose: 12.0 mg/kg/injection, schedule: Q04DX003 (ip), vehicle: saline) 153 % of control; (dose: 14.4 mg/kg/injection, schedule: Q04DX002 (ip), vehicle: saline) 151 % of control and 156 % of control; (dose: 14.4 mg/kg/injection, schedule: Q04DX003 (ip), vehicle: saline) 153 % of control. Further, the T/C is 115 % of control (dose: 16.0 mg/kg/injection, schedule: Q01DX009 (ip), vehicle: water); 169 % of control and 174 % of control and 175 % of control (dose: 20.0 mg/kg/injection, schedule: Q04DX003 (ip), vehicle: saline); 175 % of control and 177 % of control (dose: 24.0 mg/kg/injection, schedule: Q04DX002 (ip), vehicle: saline); 183 % of control and 213 % of control (dose: 24.0 mg/kg/injection, schedule: Q04DX003 (ip), vehicle: saline); 224 % of control and 94 % of control (dose: 33.3 mg/kg/injection, schedule: Q04DX003 (ip), vehicle: saline).

For the molecule `C=CCC(C(=O)OC)c1cc(OC)c(OC)c(OC)c1` (configuration not stated), the T/C reads like this: (dose: 1.25 mg/kg/injection, schedule: Q01DX009 (ip), vehicle: saline) 97 % of control; (dose: 2.5 mg/kg/injection, schedule: Q01DX009 (ip), vehicle: saline) 100 % of control; (dose: 5.0 mg/kg/injection, schedule: Q01DX009 (ip), vehicle: saline) 115 % of control.

Turning to `C/C=C/C/C=C/CCC(=O)C1OC1C(N)=O` (configuration not stated), the T/C runs as follows: (dose: 8.0 mg/kg/injection, schedule: Q01DX009 (ip), vehicle: Klucel (hydroxypropylcellulose) (HPC)) 93 % of control; (dose: 16.0 mg/kg/injection, schedule: Q01DX009 (ip), vehicle: Klucel (hydroxypropylcellulose) (HPC)) 93 % of control; (dose: 32.0 mg/kg/injection, schedule: Q01DX009 (ip), vehicle: Klucel (hydroxypropylcellulose) (HPC)) 102 % of control; (dose: 64.0 mg/kg/injection, schedule: Q01DX009 (ip), vehicle: Klucel (hydroxypropylcellulose) (HPC)) 93 % of control.

As for `[Cl][Ru][Cl].[NH-]CC[NH-].[NH-]CC[NH-]`, the T/C was 111 % of control and 123 % of control and 124 % of control (dose: 12.5 mg/kg/injection, schedule: Q04DX003 (ip), vehicle: water); 107 % of control (dose: 25.0 mg/kg/injection, schedule: Q04DX003 (ip), vehicle: water); 155 % of control (dose: 50.0 mg/kg/injection, schedule: Q04DX003 (ip), vehicle: water).

As to `CCCCCCC(C)OC(=O)OCCOCCOC(=O)OC(C)C(=O)OCCCC` (configuration not stated), the T/C under setting [3] is 100 % of control; the T/C under setting [4] was 94 % of control; the T/C (dose: 240.0 mg/kg/injection, schedule: Q01DX005 (ip), vehicle: saline) is 100 % of control.

In the case of `O=C1CCCC2=C1C(c1ccc(Cl)c(Cl)c1)C1=C(CCCC1=O)O2`, the T/C is 95 % of control (dose: 60.0 mg/kg/injection, schedule: Q01DX005 (ip), vehicle: saline with Tween-80); 95 % of control (dose: 120.0 mg/kg/injection, schedule: Q01DX005 (ip), vehicle: saline with Tween-80); 94 % of control (dose: 240.0 mg/kg/injection, schedule: Q01DX005 (ip), vehicle: saline with Tween-80).

For `CCCCCCCCCC(=O)NC(CN1CCOCC1)C(=O)c1ccccc1` (configuration not stated), the T/C reads like this: under setting [1], 87 % of control; under setting [2], 88 % of control.

For the molecule `CCNC(=O)C1CCN(Cc2c[nH]c3ccccc23)CC1`, the T/C was 113 % of control (dose: 50.0 mg/kg/injection, schedule: Q04DX003 (ip), vehicle: saline with Tween-80); 93 % of control (dose: 100.0 mg/kg/injection, schedule: Q04DX003 (ip), vehicle: saline with Tween-80); 102 % of control (dose: 200.0 mg/kg/injection, schedule: Q04DX003 (ip), vehicle: saline with Tween-80).

Consider `CCN(CC)C(C)(C)C(=O)/C=C/c1ccc(Cl)cc1`, for which the T/C was 115 % of control under setting [3] and 101 % of control under setting [4].

Consider `CCOc1c(N=Nc2ccc(O)cc2)c(C)nn1C(=S)SC`, for which the T/C runs as follows: (dose: 60.0 mg/kg/injection, schedule: Q01DX005 (ip), vehicle: Klucel + Tween-80) 107 % of control; (dose: 120.0 mg/kg/injection, schedule: Q01DX005 (ip), vehicle: Klucel + Tween-80) 104 % of control; (dose: 240.0 mg/kg/injection, schedule: Q01DX005 (ip), vehicle: Klucel + Tween-80) 100 % of control.

For `CS(=O)(=O)OCC1OCC(OS(C)(=O)=O)C1O` (configuration not stated), the T/C reads like this: (dose: 50.0 mg/kg/injection, schedule: Q01DX001 (ip), vehicle: Klucel (hydroxypropylcellulose) (HPC)) 101 % of control; (dose: 100.0 mg/kg/injection, schedule: Q01DX001 (ip), vehicle: Klucel (hydroxypropylcellulose) (HPC)) 102 % of control; (dose: 200.0 mg/kg/injection, schedule: Q01DX001 (ip), vehicle: Klucel (hydroxypropylcellulose) (HPC)) 101 % of control.

Regarding `O=C1c2cccc(O)c2C(=O)c2c(OC3OC(CO)C(O)C(O)C3O)cccc21` (configuration not stated), the T/C was 94 % of control (dose: 50.0 mg/kg/injection, schedule: Q01DX009 (ip), vehicle: saline); 93 % of control (dose: 100.0 mg/kg/injection, schedule: Q01DX009 (ip), vehicle: saline); 88 % of control (dose: 200.0 mg/kg/injection, schedule: Q01DX009 (ip), vehicle: saline).
